Data as given in US20090203701A1, “PROPHYLACTIC AND/OR THERAPEUTIC AGENT FOR RHEUMATOID ARTHRITIS” (KOWA CO., LTD, priority 2006, published 2009).

Tested on: rat collagen-induced arthritis model
Assay: Edema suppression in both hindlimbs, rat collagen-induced arthritis model
Type: in vivo
Parameters: key to Edema Index: sum of both hindlimb edema volumes on days 14, 18, 22, 26
Conditions: for Relative index: control group = 1.000; for Edema Index: average ± standard error
Method: For the cases of combined administration and respective single drug administrations of 2-benzyl-5-(4-chlorophenyl)-6-[4-(methylthio)phenyl]-2H-pyridazin-3-one and atorvastatin calcium hydrate, the effect of edema suppression in both hindlimbs was determined by the following method (rat collagen-induced arthritis model) (FDA, CBER, CDER, CDRH: Guidance for industry—Clinical development programs for drugs, devices, and biological products for the treatment of rheumatoid arthritis (RA)—.(1999)).
For the test animal, female Lewis rats (LEW/Crj) (obtained from Charles River Laboratories Japan, Inc.) were used.
For each 8-week-old LEW/Crj rat, the volume of a portion from the ankle to the toe tip of both hindlimbs (hereinafter, both hindlimbs volume) was measured by means of a plethysmometer for small animals (TK-101CMP, product of Unicom), and the total volume was taken as the both hindlimbs volume upon initiation of test (hereinafter, Pre value). This Pre value was used as an index to divide the rats into groups by randomized block design by the single variable, so that the values in the respective groups averaged out.
The collagen emulsion for sensitization that was used to induce arthritis in rats, was prepared by homogenizing a 0.3% Type II collagen solution (Collagen Research Center), Adjuvant Peptide (Peptide Institute, Inc.) and Adjuvant Incomplete Freund (DIFCO), using a Handy Micro Homogenizer (Microtec Nition, Co., Ltd.) under ice-cooling. The collagen emulsion thus prepared was intracutaneously administered at 10 sites in the back of each rat at a dose of 0.1 mL/site, to perform initial sensitization of the rat. Seven days after the initial sensitization, 0.12 mL of the same collagen emulsion was intracutaneously administered to the root of tail in each rat, to perform booster sensitization.
Drug administration was conducted from the day after the initial sensitization through 26 days thereafter. The group for sole administration of 2-benzyl-5-(4-chlorophenyl)-6-[4-(methylthio)phenyl]-2H-pyridazin-3-one (Drug A) was orally administered with the drug at 3 mg/kg, twice a day, in the morning (9:00 to 11:00) and in the evening (15:30 to 17:30). The group for sole administration of atorvastatin calcium hydrate (Drug B1) was orally administered with the drug at 30 or 100 mg/kg, once a day, in the afternoon (11:30 to 13:30). On the other hand, the group for combined administration of Drug A and Drug B1 was orally administered with Drug A at 3 mg/kg in the morning (9:00 to 11:00) and in the evening (15:30 to 17:30), and with Drug B1 at 30 or 100 mg/kg in the afternoon (11:30 to 13:30).
14, 18, 22 and 26 days after the initial sensitization, the both hindlimbs volume was measured again for each rat, and the difference between each of the values and the Pre value was determined to calculate the edema volume for both hindlimbs. The sum of the edema volumes for both hindlimbs measured 14, 18, 22 and 26 days after the initial sensitization was calculated as Edema Index, and this was taken as an index for the effects of the drugs.
Table 1 and FIG. 1 present the Edema Indices of the group for sole administration of 3 mg/kg of Drug A, the group for sole administration of 30 mg/kg of Drug B1, and the group for combined administration of both drugs. Furthermore, Table 2 and FIG. 2 present the Edema Indices of the group for sole administration of 3 mg/kg of Drug A, the group for sole administration of 100 mg/kg of Drug B1, and the group for combined administration of both drugs. The Edema Index is expressed in the average value±standard error of 8 rats in each group. Furthermore, the decrease rate is indicated as ((X−Y)/X)×100 (X: average Edema Index for control group, Y: average Edema Index for each group)

SMILES | Relative index (Table 1 experiment, sole Drug B1 30 mg/kg orally once a day) | Decrease rate (%) (Table 1 experiment, sole Drug B1 30 mg/kg orally once a day, vs control group) | Edema Index (Table 1 experiment, sole administration of Drug B1 30 mg/kg orally once a day, day 1-26) | Relative index (Table 2 experiment, sole Drug B1 100 mg/kg orally once a day) | Decrease rate (%) (Table 2 experiment, sole Drug B1 100 mg/kg orally once a day, vs control group) | Edema Index (Table 2 experiment, sole administration of Drug B1 100 mg/kg orally once a day, day 1-26) | Effects on edema (Edema Index), in words (sole Drug B1 at the doses of 30 and 100 mg/kg) | Relative index (Table 1 experiment, sole Drug A 3 mg/kg orally twice a day) | Decrease rate (%) (Table 1 experiment, sole Drug A 3 mg/kg orally twice a day, vs control group Edema Index) | Edema Index (Table 1 experiment, sole administration of Drug A 3 mg/kg orally twice a day, day 1-26 after initial sensitization, sum of edema volumes on days 14, 18, 22, 26) | Relative index (Table 2 experiment, sole Drug A 3 mg/kg orally twice a day) | Decrease rate (%) (Table 2 experiment, sole Drug A 3 mg/kg orally twice a day, vs control group) | Edema Index (Table 2 experiment, sole administration of Drug A 3 mg/kg orally twice a day, day 1-26)
CC(C)c1c(C(=O)Nc2ccccc2)c(-c2ccccc2)c(-c2ccc(F)cc2)n1CC[C@@H](O)C[C@@H](O)CC(=O)O [Drug B1, atorvastatin calcium hydrate] | 1.086 | −8.6% | 6.07 ± 0.30 | 1.060 | −6.0% | 6.57 ± 0.31 | did not show any effects on edema | – | – | – | – | – | –
CSc1ccc(-c2nn(Cc3ccccc3)c(=O)cc2-c2ccc(Cl)cc2)cc1 [Drug A, 2-benzyl-5-(4-chlorophenyl)-6-[4-(methylthio)phenyl]-2H-pyridazin-3-one] | – | – | – | – | – | – | – | 0.935 | 6.5% | 5.23 ± 0.45 | 0.790 | 21.0% | 4.89 ± 0.57
